Test results as given in patent US20240391965A1, “STAPLED ANTIMICROBIAL PEPTIDES (STAMPS) AND USES THEREOF” (Lytica Therapeutics, Inc., priority 2021, published 2024).
≈ marks a conversion by molar mass, not a printed value. Starred links: 1 amine or outer side, 2 acyl side, 3 side chain; linkers in the order of their positions; H or OH if unused. Positions of bridges follow the written chain, without caps; N, C: chain ends. Residues, ends and D or L forms follow the SMILES beside them. 2,2'Bipyridine(5,5'-diCH2) = c1cc(-c2ccc(C[*:2])cn2)ncc1C[*:1]; Naphthalene(2,6-diCH2) = c1cc2cc(C[*:2])ccc2cc1C[*:1]

Experiments:
[1] = test system: Escherichia coli (E. coli); format: cell-based; conditions: microbroth dilution, 20-24 hours at 37° C.
Protocol: (§1) Antimicrobial Activity Assay: The following microbroth dilution protocol was adapted from CLSI to determine the minimum inhibitory concentration (MIC) of StAMPs. Briefly, Mueller-Hinton broth (MHB) or cation-adjusted Mueller-Hinton broth (MHB II) was prepared and autoclaved. Then, a colony of bacterial cells was picked and grown overnight in broth at 37° C. and then diluted and allowed to grow again for 3-4 hours. Serial dilutions of peptide stocks in water (10 μl) were prepared using clear round-bottom polypropylene 96-well plates. Then 90 μl of bacteria in broth was added to give a final inoculum of 5×10^5 CFU/ml. The plates were then covered with porous tape to reduce evaporation and incubated for 20-24 hours at 37° C. The MIC was the minimum peptide concentration at which no visible bacterial growth was observed.

[2] = test system: Klebsiella pneumoniae (K. pneumoniae); format: cell-based; conditions: microbroth dilution, 20-24 hours at 37° C.
Protocol: as §1

[3] = test system: Acinetobacter baumannii (A. baumannii); format: cell-based; conditions: microbroth dilution, 20-24 hours at 37° C.
Protocol: as §1

[4] = test system: Staphylococcus aureus (S. aureus); format: cell-based; conditions: microbroth dilution, 20-24 hours at 37° C.
Protocol: as §1

[5] = test system: Pseudomonas aeruginosa (P. aeruginosa); format: cell-based; conditions: microbroth dilution, 20-24 hours at 37° C.
Protocol: as §1

[6] = 48 hours cytotoxicity assay (CellTiter-Glo), liver toxicity; format: cell-based, human; conditions: 48 hours of incubation, CellTiter-Glo; read-out: Inhibitory Concentration at 50% Cytotoxicity (IC50) Human Liver Cells (HepG2)
How it was run: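 Viability from CellTiter-Glo luminescence after StAMP dilution series or vehicle acted on HepG2 cells for 48 h at 37 °C. Cells were grown in EMEM plus 10% FBS and given 4 h to attach before dosing.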

SMILES	Minimum Inhibitory Concentration (MIC) E. coli [1]	Minimum Inhibitory Concentration (MIC) K. pneumoniae [2]	Minimum Inhibitory Concentration (MIC) A. baumannii [3]	Minimum Inhibitory Concentration (MIC) S. aureus [4]	Minimum Inhibitory Concentration (MIC) P. aeruginosa [5]	IC50 [6]
CC[C@H](C)[C@H](NC(=O)CN)C(=O)N[C@@H](Cc1ccccc1)C(=O)N[C@@H](CO)C(=O)N[C@@H](CCCCN)C(=O)N[C@@H](CC(C)C)C(=O)N[C@@H](C)C(=O)N[C@H]1CSCc2ccc3cc(ccc3c2)CSC[C@@H](C(=O)N[C@H](C(=O)N[C@@H](CO)C(=O)NCC(=O)N[C@@H](CC(C)C)C(=O)N[C@@H](CCCCN)C(=O)NCC(N)=O)[C@@H](C)CC)NC(=O)[C@H](CC(C)C)NC(=O)[C@H](CC(N)=O)NC(=O)[C@H](CCCCN)NC(=O)[C@H]([C@@H](C)CC)NC(=O)[C@H](CCCCN)NC(=O)[C@H](CCCCN)NC1=O [compound 67] (H-GIFSKLACKKIKNLCISGLKG-NH2; linker 8-15 via Naphthalene(2,6-diCH2))	4 µg/mL	8 µg/mL	4 µg/mL	>64 µg/mL	32 µg/mL	59 µg/mL (≈ 24.9 µM)
CC[C@H](C)[C@H](NC(=O)CN)C(=O)N[C@@H](Cc1ccccc1)C(=O)N[C@@H](CO)C(=O)N[C@@H](CCCCN)C(=O)N[C@@H](CC(C)C)C(=O)N[C@@H](C)C(=O)NCC(=O)N[C@H]1CSCc2ccc3cc(ccc3c2)CSC[C@@H](C(=O)N[C@@H](CO)C(=O)NCC(=O)N[C@@H](CC(C)C)C(=O)N[C@@H](CCCCN)C(=O)NCC(N)=O)NC(=O)[C@H](CC(C)C)NC(=O)[C@H](CC(C)C)NC(=O)[C@H](CC(N)=O)NC(=O)[C@H](CCCCN)NC(=O)[C@H]([C@@H](C)CC)NC(=O)[C@H](CCCCN)NC1=O [compound 69] (H-GIFSKLAGCKIKNLLCSGLKG-NH2; linker 9-16 via Naphthalene(2,6-diCH2); N-terminus assumed)	16 µg/mL	32 µg/mL	16 µg/mL	>64 µg/mL	>64 µg/mL	52 µg/mL (≈ 22.6 µM)
CC[C@H](C)[C@H](NC(=O)CN)C(=O)N[C@@H](Cc1ccccc1)C(=O)N[C@@H](CO)C(=O)N[C@@H](CCCCN)C(=O)N[C@@H](CC(C)C)C(=O)N[C@@H](C)C(=O)NCC(=O)N[C@H]1CSCc2ccc(nc2)-c2ccc(cn2)CSC[C@@H](C(=O)N[C@@H](CO)C(=O)NCC(=O)N[C@@H](CC(C)C)C(=O)N[C@@H](CCCCN)C(=O)NCC(N)=O)NC(=O)[C@H](CC(C)C)NC(=O)[C@H](CC(C)C)NC(=O)[C@H](CC(N)=O)NC(=O)[C@H](CCCCN)NC(=O)[C@H]([C@@H](C)CC)NC(=O)[C@H](CCCCN)NC1=O [compound 71] (H-GIFSKLAGCKIKNLLCSGLKG-NH2; linker 9-16 via 2,2'Bipyridine(5,5'-diCH2); N-terminus assumed)	64 µg/mL	>64 µg/mL	32 µg/mL	>64 µg/mL	>64 µg/mL	360 µg/mL (≈ 155 µM)
CC[C@H](C)[C@H](NC(=O)CN)C(=O)N[C@@H](Cc1ccccc1)C(=O)N[C@@H](CO)C(=O)N[C@@H](CCCCN)C(=O)N[C@@H](CC(C)C)C(=O)N[C@@H](C)C(=O)NCC(=O)N[C@@H](CCCCN)C(=O)N[C@@H](CCCCN)C(=O)N[C@H]1CSCc2ccc3cc(ccc3c2)CSC[C@@H](C(=O)N[C@@H](CC(C)C)C(=O)N[C@@H](CCCCN)C(=O)NCC(N)=O)NC(=O)[C@H](CO)NC(=O)[C@H]([C@@H](C)CC)NC(=O)[C@H](CC(C)C)NC(=O)[C@H](CC(C)C)NC(=O)[C@H](CC(N)=O)NC(=O)[C@H](CCCCN)NC1=O [compound 75] (H-GIFSKLAGKKCKNLLISCLKG-NH2; linker 11-18 via Naphthalene(2,6-diCH2); N-terminus assumed)	4 µg/mL	16 µg/mL	4 µg/mL	64 µg/mL	16 µg/mL	98 µg/mL (≈ 41.3 µM)
CC[C@H](C)[C@H](NC(=O)CN)C(=O)N[C@@H](Cc1ccccc1)C(=O)N[C@@H](CO)C(=O)N[C@@H](CCCCN)C(=O)N[C@@H](CC(C)C)C(=O)N[C@@H](C)C(=O)NCC(=O)N[C@@H](CCCCN)C(=O)N[C@@H](CCCCN)C(=O)N[C@H]1CSCc2ccc(nc2)-c2ccc(cn2)CSC[C@@H](C(=O)N[C@@H](CC(C)C)C(=O)N[C@@H](CCCCN)C(=O)NCC(N)=O)NC(=O)[C@H](CO)NC(=O)[C@H]([C@@H](C)CC)NC(=O)[C@H](CC(C)C)NC(=O)[C@H](CC(C)C)NC(=O)[C@H](CC(N)=O)NC(=O)[C@H](CCCCN)NC1=O [compound 77] (H-GIFSKLAGKKCKNLLISCLKG-NH2; linker 11-18 via 2,2'Bipyridine(5,5'-diCH2); N-terminus assumed)	4 µg/mL	32 µg/mL	4 µg/mL	>64 µg/mL	32 µg/mL	159 µg/mL (≈ 66.2 µM)
CC[C@H](C)[C@H](NC(=O)CN)C(=O)N[C@@H](Cc1ccccc1)C(=O)N[C@@H](CO)C(=O)N[C@@H](CCCCN)C(=O)N[C@@H](CC(C)C)C(=O)N[C@@H](C)C(=O)NCC(=O)N[C@@H](CCCCN)C(=O)N[C@@H](CCCCN)C(=O)N[C@H](C(=O)N[C@H]1CSCc2ccc3cc(ccc3c2)CSC[C@@H](C(=O)N[C@@H](CCCCN)C(=O)NCC(N)=O)NC(=O)CNC(=O)[C@H](CO)NC(=O)[C@H]([C@@H](C)CC)NC(=O)[C@H](CC(C)C)NC(=O)[C@H](CC(C)C)NC(=O)[C@H](CC(N)=O)NC1=O)[C@@H](C)CC [compound 78] (H-GIFSKLAGKKICNLLISGCKG-NH2; linker 12-19 via Naphthalene(2,6-diCH2); N-terminus assumed)	16 µg/mL	64 µg/mL	16 µg/mL	>64 µg/mL	64 µg/mL	108 µg/mL (≈ 46.9 µM)
CC[C@H](C)[C@H](NC(=O)CN)C(=O)N[C@@H](Cc1ccccc1)C(=O)N[C@@H](CO)C(=O)N[C@@H](CCCCN)C(=O)N[C@@H](CC(C)C)C(=O)N[C@@H](C)C(=O)NCC(=O)N[C@@H](CCCCN)C(=O)N[C@@H](CCCCN)C(=O)N[C@H](C(=O)N[C@H]1CSCc2ccc(nc2)-c2ccc(cn2)CSC[C@@H](C(=O)N[C@@H](CCCCN)C(=O)NCC(N)=O)NC(=O)CNC(=O)[C@H](CO)NC(=O)[C@H]([C@@H](C)CC)NC(=O)[C@H](CC(C)C)NC(=O)[C@H](CC(C)C)NC(=O)[C@H](CC(N)=O)NC1=O)[C@@H](C)CC [compound 80] (H-GIFSKLAGKKICNLLISGCKG-NH2; linker 12-19 via 2,2'Bipyridine(5,5'-diCH2); N-terminus assumed)	32 µg/mL	>64 µg/mL	32 µg/mL	>64 µg/mL	>64 µg/mL	49 µg/mL (≈ 21 µM)
